Assay results from patent US6056944A, “Pharmaceutical compositions for oral use including an NSAID and ceramides” (Synthelabo, priority 1995, dated 2000).

Tested on: inflammation of the adult rat paw
Test: carragheenin-induced inflammation of the adult rat paw (edema volume)
Format: in vivo
Conditions: gavage, 1 mg/kg, from 4 hours onwards, persisting up to 5 hours
Description: These tests consist in inducing inflammation of the adult rat paw and monitoring the development of the edema by measuring the volume of the paw.
The experimental conditions were as follows: rats, weighing from 200 to 220 g, were treated by gavage, 18 hours and 1 hour before administering the inflammatory agent, with the NSAI product to be studied, which was or was not combined with ceramides and which was administered in a volume of 0.5 ml. Control groups were given an 0.9% solution of sodium chloride.
The inflammatory reaction is induced by subcutaneously injecting 0.1 ml of a suspension of carragheenin in physiological saline. The volume of the paw is measured, using a mercury plethysmograph, before the inflammation starts, 30 minutes after it has started, and then every hour up to the 6th hour, and then finally 24 hours afterwards. The changes in volume are measured in cm on a graduated scale.
The tests were carried out with ketoprofen lysine, which was administered at 1 and 3 mg/kg and which was or was not combined with 0.5% of ceramides, and with ketoprofen, which was administered at 1 mg/kg and which was or was not combined with 1% of ceramides.

In the case of `CC(C(=O)O)c1cccc(C(=O)c2ccccc2)c1` (stereo not shown) [ketoprofen], the “anti-inflammatory effect as compared with the control” value is reported as “significant as compared with the control”.
